Laboratory results reported in US12186318B2, “Pharmaceutical composition for preventing or treating cancer comprising KSP inhibitor and mitosis inhibitor” (KOREA INSTITUTE OF SCIENCE AND TECHNOLOGY, priority 2020, dated 2025).

Assays:
[1] = system: Kif15 gene; assay: Kif15 expression at the gene level (qRT-PCR) in HeyA8-MDR cells; format: cell-based; details: 50 nM siKSP and/or 2000 nM PTX, 48 hours
Description: Subsequently, total RNA was obtained respectively from the recovered cells using an RNeasy mini kit (Qiagen, US), cDNA was synthesized from the obtained total RNA using a TOPscript cDNA synthesis kit (Enzynomics, Korea), and PCR was performed using a StepOne qRT-PCR system (Thermo Fisher scientific) and primers specific to a Kif15 gene (SEQ ID NOS: 7 and 8) or primers specific to a β-actin gene (SEQ ID NOS: 5 and 6).
Thereafter, the levels of the amplified products obtained from the PCR were measured, and the measured levels were standardized with respect to an expression amount of β-actin, and then relative levels of Kif15 mRNA was calculated (FIG. 2C).

[2] = system: Kif15 protein; assay: Kif15 expression at the protein level (western blot) in HeyA8-MDR cells; format: cell-based; details: 50 nM siKSP and/or 2000 nM PTX, 48 hours
Description: The cells recovered in Example 3-3 above were analyzed by western blotting using an anti-Kif15 antibody (FIG. 2D).

[3] = system: HeyA8-MDR cells; assay: Anti-cancer activity, MTT cell viability and Bliss independence; format: cell-based; details: single agent, 0 to 200 nM liposome or 0 to 2000 nM paclitaxel, 48 hours
Description: The recovered cells were cultured in a fresh medium supplemented with a 10% MTT solution for 3 hours and formazan crystals generated by treatment with a Sorensen's glycine buffer and DMSO was dissolved therein. Thereafter, the absorbance thereof was measured at 570 nm and the cell viability was calculated using the same (FIG. 2G).
The cell viabilities of the cells were compared (FIG. 2H).
In addition, in order to quantitatively analyze a reduction level of the cell viability, the measured absorbance was applied to the following equation to calculate an expected inhibition level of cancer cells, and the obtained expected inhibition level was compared with an observed inhibition level of the cancer cells (FIGS. 2I to 2K). […] Expected inhibition level=FsiKSP-liposome+FPTX−(FsiKSP-liposome×FPTX)
Thereafter, cell viability inhibition levels and expected inhibition levels calculated therefrom were compared with each other (FIG. 2L). […] Expected Inhibition Level=Fa+Fb−(Fa×Fb)

[4] = system: HeyA8-MDR cancer cells; assay: Anti-cancer effect in tumor mouse model; format: in vivo, BALB/c nude mouse; details: 26 days after injection
Description: First, HeyA8-MDR cancer cells (1×10^8) were injected into the left thigh of a 5-week-old female BALB/c nude mouse, and then left until cancer tissue grew to a volume of about 50 mm3 to prepare 20 tumor mouse xenograft models.
Subsequently, at 26 days after injection of each of the samples, tumor tissue was excised from each tumor mouse model and weighed (FIG. 4B).
In addition, at 26 days after injection of each of the samples, tumor tissue was excised from each tumor mouse model, and tumor growth inhibition (TGI) rate was measured (FIG. 4C).

[5] = system: HeyA8-MDR cancer cells; assay: TUNEL assay on tumor tissue of tumor mouse model; format: in vivo, BALB/c nude mouse
Text: The tumor tissue of the respective groups excised in Example 4-2 above was subjected to a TUNEL assay to identify the level of apoptosis in the tumor tissue (FIG. 4I).

[6] = system: Kif15 mRNA; assay: Kif15 mRNA level in drug-resistant PDX model; format: in vivo, mouse; details: relative to control
Description: The levels of Kif15 mRNA expressed in tumor tissue of the respective groups excised in Example 4-4-2 above were measured by qRT-PCR as an application method of that of Example 3-3 (FIG. 5E).

[7] = system: drug-resistant PDX model; assay: TUNEL assay on tumor-implanted kidney tissue of drug-resistant PDX model; format: in vivo, mouse
Text: The tumor-implanted kidney tissue of the respective groups excised in Example 4-4-2 above was subjected to a TUNEL assay to identify the level of apoptosis in the tumor-implanted kidney tissue (FIG. 5H).

SMILES: CC(=O)O[C@H]1C(=O)[C@@]2(C)[C@H]([C@H](OC(=O)c3ccccc3)[C@]3(O)C[C@H](OC(=O)[C@H](O)[C@@H](NC(=O)c4ccccc4)c4ccccc4)C(C)=C1C3(C)C)[C@]1(OC(C)=O)CO[C@@H]1C[C@@H]2O [paclitaxel]
- expression level of the Kif15 gene [1]: inhibited
- level of the Kif15 protein [2]: decreased
- cell viability with increasing concentration [3]: decreases
- tumor growth inhibition (TGI) rate [4]: about 13.1%
- apoptosis in tumor tissue (TUNEL) [5]: not induced or induced in a low level
- Kif15 mRNA level in tumor-implanted kidney tissue [6]: decreased
- apoptosis in tumor-implanted kidney tissue (TUNEL) [7]: not induced or induced in a low level
